Experimental data: patent US4877893A, “Process for the preparation of 2-(O-alkyl)-2-thio-1,3,2-oxathiophospholanes” (priority 1987, dated 1989)

Assays:
Assay in all cases: Fungicidal effect on infected agar nutrient media, colony diameter
Format in all cases: cell-based
Alternaria tenuis = conditions: 5th day after treatment, untreated control 36.8
Procedure, shortened: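 Agar media (70 mm diameter, 10 mm thick) infected with Alternaria tenuis, treated with EC formulations at 1, 10, 100 and 1000 ppm active ingredient. Fungicidal effect read on day 5 after treatment as fungal colony diameter.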

Penicillium cyclopium = conditions: 7th day after treatment, untreated 26.5
Procedure, shortened: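 Agar media (70 mm diameter, 10 mm thick) infected with Penicillium cyclopium were treated with EC formulations at 1, 10, 100 and 1000 ppm active ingredient. Fungal colony diameter was measured on day 7 after treatment.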

Sclerotinia sclerotinia = conditions: 3rd day after treatment, untreated control 41.7
Method: Agar nutrient media (Diameter 70 MM, thickness 10 mm) infected by Sclerotonia sclerotinia suspension are treated with 20 EC formulations prepared according to Example 27 and comprising 1, 10, 100 and 1000 ppm, respectively of the active ingredient of the Formula I. The fungicidal effect of the compositions is evaluated on the 3rd day after treatment by measuring the diameter of the Fungi colonies.

SMILES | Diameter of colony (mm) (Alternaria tenuis; 1 ppm) | Diameter of colony (mm) (Alternaria tenuis; 10 ppm) | Diameter of colony (mm) (Alternaria tenuis; 100 ppm) | Diameter of colony (mm) (Alternaria tenuis; 1000 ppm) | Diameter of colony (mm) (Penicillium cyclopium; 1 ppm) | Diameter of colony (mm) (Penicillium cyclopium; 10 ppm) | Diameter of colony (mm) (Penicillium cyclopium; 100 ppm) | Diameter of colony (mm) (Penicillium cyclopium; 1000 ppm) | Diameter of colony (mm) (Sclerotinia sclerotinia; 1 ppm) | Diameter of colony (mm) (Sclerotinia sclerotinia; 10 ppm) | Diameter of colony (mm) (Sclerotinia sclerotinia; 100 ppm) | Diameter of colony (mm) (Sclerotinia sclerotinia; 1000 ppm)
CC(I)C(C)OP1(=S)OCCS1 (stereo not drawn) [Compound 30] | 30.1 mm | 26.7 mm | 7.2 mm | 0 mm | 21.2 mm | 20.0 mm | 7.2 mm | 0 mm | 34.8 mm | 30.0 mm | 0 mm | 0 mm
CC1COP(=S)(OC(C)C(C)Cl)S1 (stereo not drawn) [Compound 31] | 36.0 mm | 23.6 mm | 8.1 mm | 0 mm | 23.6 mm | 14.9 mm | 9.0 mm | 0 mm | 37.4 mm | 29.2 mm | 4.0 mm | 0 mm
CC1COP(=S)(OC(C)C(C)Br)S1 (stereo not drawn) [Compound 32] | 31.2 mm | 27.4 mm | 7.2 mm | 0 mm | 19.4 mm | 16.7 mm | 7.2 mm | 0 mm | 38.9 mm | 30.0 mm | 3.2 mm | 0 mm
CC1COP(=S)(OC(C)C(C)I)S1 (stereo not drawn) [Compound 33] | 33.0 mm | 21.3 mm | 6.3 mm | 0 mm | 22.3 mm | 20.7 mm | 6.1 mm | 0 mm | 33.2 mm | 26.4 mm | 0 mm | 0 mm
CC(CCl)OP1(=S)OC(C)C(C)S1 (stereo not drawn) [Compound 34, 2-(0-1'-methyl-2'-chloroethyl)-2-thio-4,5-dimethyl-1,3,2-oxathiophospholane] | 30.3 mm | 25.9 mm | 5.7 mm | 0 mm | 19.7 mm | 16.5 mm | 4.9 mm | 0 mm | 34.6 mm | 23.9 mm | 1.3 mm | 0 mm
CC(CBr)OP1(=S)OC(C)C(C)S1 (stereo not drawn) [Compound 35] | 34.7 mm | 27.1 mm | 6.2 mm | 0 mm | 25.1 mm | 14.7 mm | 8.3 mm | 0 mm | 38.1 mm | 25.7 mm | 2.6 mm | 0 mm
CC(CI)OP1(=S)OC(C)C(C)S1 (stereo not drawn) [Compound 36] | 32.5 mm | 20.7 mm | 4.3 mm | 0 mm | 23.2 mm | 16.8 mm | 7.2 mm | 0 mm | 37.2 mm | 26.9 mm | 0 mm | 0 mm
CC1CSP(=S)(OC(C)C(C)Cl)O1 (stereo not drawn) [Compound 37] | 30.8 mm | 21.9 mm | 5.6 mm | 0 mm | 19.9 mm | 17.5 mm | 6.6 mm | 0 mm | 39.2 mm | 27.1 mm | 0 mm | 0 mm
CC1CSP(=S)(OC(C)C(C)Br)O1 (stereo not drawn) [Compound 38] | 30.2 mm | 24.5 mm | 6.9 mm | 0 mm | 24.3 mm | 18.6 mm | 7.4 mm | 0 mm | 37.8 mm | 31.3 mm | 0 mm | 0 mm
CC1CSP(=S)(OC(C)C(C)I)O1 (stereo not drawn) [Compound 39] | 34.6 mm | 23.3 mm | 7.3 mm | 0 mm | 21.1 mm | 15.8 mm | 4.7 mm | 0 mm | 37.2 mm | 30.2 mm | 3.6 mm | 0 mm
CC(Cl)COP1(=S)OC(C)C(C)S1 (stereo not drawn) [Compound 40] | 31.3 mm | 21.7 mm | 6.1 mm | 0 mm | 18.9 mm | 20.0 mm | 6.8 mm | 0 mm | 34.9 mm | 28.0 mm | 1.9 mm | 0 mm
CC(Br)COP1(=S)OC(C)C(C)S1 (stereo not drawn) [Compound 41] | 33.8 mm | 25.1 mm | 7.3 mm | 0 mm | 24.1 mm | 16.4 mm | 4.9 mm | 0 mm | 37.6 mm | 30.0 mm | 2.6 mm | 0 mm
CC(I)COP1(=S)OC(C)C(C)S1 (stereo not drawn) [Compound 42] | 32.1 mm | 20.4 mm | 9.0 mm | 0 mm | 22.2 mm | 17.2 mm | 7.5 mm | 0 mm | 38.2 mm | 31.2 mm | 3.5 mm | 0 mm
